Measured values published in patent US20060183677A1, “Novel exendin agonist formulations and methods of administration thereof” (priority 2002, published 2006).

How the values were obtained:
Sprague-Dawley rats = assay: Insulinotropic action during intravenous glucose challenge in rats (Example 5); assay type: in vivo; conditions: 30 pmol/kg/min i.v.
diabetic db/db mice = assay: Glucose lowering in diabetic db/db mice (dose response); assay type: in vivo
Procedure: C57BLKS/J-m-db/db mice, at least 3 months of age were utilized for the study. The mice were obtained from The Jackson Laboratory and allowed to acclimate for at least one week before use. Mice were housed in groups of ten at 22° C.±1° C. with a 12:12 light:dark cycle, with lights on at 6 a.m. All animals were deprived of food for 2 hours before taking baseline blood samples. Approximately 70 μl of blood was drawn from each mouse via eye puncture, after a light anesthesia with metophane. […] Blood samples were drawn again, using the same procedure, after exactly one hour from the injections, and plasma glucose concentrations were measured. For each animal, the % change in plasma value, from baseline value, was calculated and a dose dependent relationship was evaluated using Graphpad Prizm™ software.

humans = conditions: acute treatment; cited from earlier work

GLP-1[7-36]NH2
60-min glucose AUC (Sprague-Dawley rats): 1096 ± 68 mM·min | plasma glucose after glucose injection (Sprague-Dawley rats; D-glucose […] i.v.): 23.7 mM | increase of 60-min insulin AUC versus saline-treated rats (Sprague-Dawley rats; n.s. versus saline): 20% | Glucose-lowering ED50 (diabetic db/db mice): 20.6 µg | acute effect on insulin sensitivity (humans): appears not to immediately alter insulin sensitivity
